From patent EP1215202A1, “Intermediates for the preparation of possibly substituted 8-cyano-1-cyclopropyl-7-(2,8-diazabicyclo-(4.3.0)-nonan-8-yl)-6-fluoro-1,4-dihydro-4-oxo-3-quinolin carboxylic acids and their derivatives” (BAYER AG, priority 1996, dated 1997)
In brackets after ≈: the same amount, converted by molar mass.

Experiments:
[1] = tested on: Clostridium perfringens Cl 9606; experiment: microbe, parasite or virus in culture; type: cell-based; settings: CL9606, 20 h, read-out: MHK-Werte
Mycoplasma iowae M 95144 = experiment: MIC (MHK), agar serial dilution, mycoplasma read microscopically; type: cell-based; settings: Malacoplasma iowae, M95144, Stamm M 95144, read microscopically after 5 to 7 days, read-out: MHK-Werte
[2] = tested on: Fusobacterium necrophorum Ao 9620; experiment: MIC (MHK), agar serial dilution on Iso-Sensitest agar; type: cell-based; settings: AO9620, Stamm Ao 9620, 37°C, read after ca. 20 h, read-out: MHK-Werte
[3] = tested on: Actinomyces pyogenes Am 9602; experiment: as above; type: cell-based; settings: Trueperella pyogenes, AM9602, Stamm Am 9602, 37°C, read after ca. 20 h, read-out: MHK-Werte
[4] = tested on: Streptococcus agalactiae Scc 9549; experiment: as above; type: cell-based; settings: SCC9549, Stamm Scc 9549, 37°C, read after ca. 20 h, read-out: MHK-Werte
[5] = tested on: Streptococcus suis Scc 9593; experiment: as above; type: cell-based; settings: SCC9593, Stamm Scc 9593, 37°C, read after ca. 20 h, read-out: MHK-Werte
in vivo = experiment: in vivo; set-up: species or system Hunde (Beagle); settings: dog, 5 mg/kg
Procedure: Die verbesserten pharmakokinetischen Eigenschaften der erfindungsgemäßen Substanz aus […] Enrofloxacin in einer Serumkinetik-Studie an Hunden gezeigt werden. Die Substanzen wurden in einer Dosierung von 5 mg/kg Körpergewicht an jeweils 6 Hunden […] Beagle geprüft. Dabei […].), intramuskulär (i. m.) und oral in […] Cross-Over-Anordnung zur Anwendung. Bei allen Applikationsarten konnte gezeigt werden, dass mit der erfindungsgemäßen Substanz aus […]1/2) und […] und somit eine größere Substanzmenge im Organismus zur […] unter der Serumspiegelkurve, AUC0-24).

Salmonella spp. S 9659 = experiment: MIC (MHK), agar serial dilution on Iso-Sensitest agar; type: cell-based; settings: SPP.S9659, Stamm S 9659, 37°C, read after ca. 20 h, read-out: MHK-Werte
Description: (§1) Die minimalen Hemmkonzentrationen (MHK) der erfindungsgemäßen Verbindungen wurden per Reihenverdünnungsverfahren auf Iso-Sensitest Agar (Oxoid) bestimmt. Für jede Prüfsubstanz wurde eine Reihe von Agarplatten hergestellt, die bei jeweils doppelter Verdünnung abfallende Konzentrationen des Wirkstoffs enthielten. Die Agarplatten wurden mit einem Multipoint-Inokulator (Denley) beimpft. Zum Beimpfen wurden Übernachtkulturen der Erreger verwandt, die zuvor so verdünnt wurden, dass jeder Impfpunkt ca. 10^4 koloniebildende Partikel enthielt. Die beimpften Agarplatten wurden bei 37°C bebrütet, und das Keimwachstum wurde nach ca. 20 Stunden abgelesen. Der MHK-Wert (µg/ml) gibt die niedrigste Wirkstoffkonzentration an, bei der mit bloßem Auge kein Wachstum zu erkennen war. Die Erfassung der MHK-Werte für Mycoplasmen erfolgte mikroskopisch nach einer Inkubationszeit von 5 bis 7 Tagen.
(§2) In der nachstehenden Tabelle sind die MHK-Werte einer der erfindungsgemäßen Verbindungen im Vergleich zu Enrofloxacin als Referenzverbindung aufgeführt.

[6] = tested on: Pseudomonas aeruginosa P 9503; experiment: as above; type: cell-based; settings: P9503, Stamm P 9503, 37°C, read after ca. 20 h, read-out: MHK-Werte
E. coli Ec 9658 = experiment: as above; type: cell-based; settings: Escherichia coli, EC9658, Stamm Ec 9658, 37°C, read after ca. 20 h, read-out: MHK-Werte
[7] = tested on: Bordetella bronchiseptica B 9610; experiment: as above; type: cell-based; settings: B9610, Stamm B 9610, 37°C, read after ca. 20 h, read-out: MHK-Werte
[8] = tested on: Actinobacillus pleuropneumoniae App 06/94; experiment: as above; type: cell-based; settings: APP06/94, Stamm App 06/94, 37°C, read after ca. 20 h, read-out: MHK-Werte
Mycoplasma bovis M 9548 = experiment: MIC (MHK), agar serial dilution, mycoplasma read microscopically; type: cell-based; settings: Mycoplasmopsis bovis, M9548, Stamm M 9548, read microscopically after 5 to 7 days, read-out: MHK-Werte
Description: as §1, with “Der MHK-Wert (µg/ml) gibt die niedrigste Wirkstoffkonzentration an, bei der mit bloßem Auge kein Wachstum zu erkennen war. Die Erfassung der MHK-Werte für Mycoplasmen erfolgte mikroskopisch nach einer Inkubationszeit von 5 bis 7 Tagen.” left out
as §2

[9] = tested on: Mycoplasma hyorhinis M 9557; experiment: as above; type: cell-based; settings: M9557, Stamm M 9557, read microscopically after 5 to 7 days, read-out: MHK-Werte

Row | SMILES | MIC [1] | MIC (Mycoplasma iowae M 95144) | MIC [2] | MIC [3] | MIC [4] | MIC [5] | AUC(0-t) at 24 h (in vivo; im) | Cmax (in vivo; im) | MRT (in vivo; im) | half-life (in vivo; im) | AUC(0-t) at 24 h (in vivo; iv) | MRT (in vivo; iv) | half-life (in vivo; iv) | AUC(0-t) at 24 h (in vivo; po) | Cmax (in vivo; po) | MRT (in vivo; po) | half-life (in vivo; po) | MIC (Salmonella spp. S 9659) | MIC [6] | also measured
1 | N#Cc1c(N2C[C@@H]3CCCN[C@@H]3C2)c(F)cc2c(=O)c(C(=O)O)cn(C3CC3)c12 [Beispiel 1, 8-Cyan-1-cyclopropyl-7-((1S,6S)-2,8-diazabicyclo[4.3.0]nonan-8-yl)-6-fluor-1,4-dihydro-4-oxo-3-chinolincarbonsäure] | 0.25 µg/mL (≈ 0.631 µM) | 0.06 µg/mL (≈ 0.151 µM) | 0.03 µg/mL (≈ 0.0757 µM) | 0.25 µg/mL (≈ 0.631 µM) | 0.03 µg/mL (≈ 0.0757 µM) | 0.06 µg/mL (≈ 0.151 µM) | 19800 ng·h/mL | 2400 ng/mL | 8.5 h | 6.9 h | 20000 ng·h/mL | 11.5 h | 10.5 h | 17400 ng·h/mL | 1300 ng/mL | 14.7 h | 9.5 h | 0.06 µg/mL (≈ 0.151 µM) | 0.25 µg/mL (≈ 0.631 µM) | –
2 | CCN1CCN(c2cc3c(cc2F)c(=O)c(C(=O)O)cn3C2CC2)CC1 [Enrofloxacin] | 4 µg/mL (≈ 11.1 µM) | 0.5 µg/mL (≈ 1.39 µM) | 4 µg/mL (≈ 11.1 µM) | 1 µg/mL (≈ 2.78 µM) | 0.5 µg/mL (≈ 1.39 µM) | 0.5 µg/mL (≈ 1.39 µM) | 8400 ng·h/mL | 2100 ng/mL | 3.9 h | 2.9 h | 10400 ng·h/mL | 4.2 h | 3.7 h | 7000 ng·h/mL | 1000 ng/mL | 7.3 h | 4.3 h | 0.5 µg/mL (≈ 1.39 µM) | 1 µg/mL (≈ 2.78 µM) | MIC (E. coli Ec 9658): 0.03 µg/mL (≈ 0.0835 µM); MIC [7]: 0.5 µg/mL (≈ 1.39 µM); MIC [8]: 0.06 µg/mL (≈ 0.167 µM); MIC (Mycoplasma bovis M 9548): 0.25 µg/mL (≈ 0.696 µM); MIC [9]: 0.06 µg/mL (≈ 0.167 µM)
